This passage reports T1/2 results from publication PMC4469915 (Molecules and Cells, 2015).

The target in one experiment is apoA-I (Homo sapiens, UniProt P02647). The experiment in a line: DMPC multilamellar liposome clearance, absorbance at […] nm. Format: binding. To be noted: lipid-free protein; liposomes; protein:DMPC 2:1 mol/mol as printed; 24.5°C.
The next experiment addresses T1, apoA4 (Homo sapiens, UniProt P06727).
T1 sequence (P06727 21-396): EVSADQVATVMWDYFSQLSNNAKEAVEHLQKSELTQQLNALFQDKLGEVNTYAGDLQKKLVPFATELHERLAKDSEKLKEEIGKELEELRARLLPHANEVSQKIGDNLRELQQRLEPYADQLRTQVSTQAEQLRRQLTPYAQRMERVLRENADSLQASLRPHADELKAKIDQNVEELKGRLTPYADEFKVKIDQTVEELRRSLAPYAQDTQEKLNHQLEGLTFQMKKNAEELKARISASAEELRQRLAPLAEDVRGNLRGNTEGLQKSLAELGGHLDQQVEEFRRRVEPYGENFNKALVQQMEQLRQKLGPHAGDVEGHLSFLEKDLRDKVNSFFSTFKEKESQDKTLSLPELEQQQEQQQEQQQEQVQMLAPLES
The description is as above. Format: binding. To be noted: lipid-free protein; liposomes; protein:DMPC 2:1 mol/mol as printed; 24.5°C.

apoA-I, sequence (P02647 25-267): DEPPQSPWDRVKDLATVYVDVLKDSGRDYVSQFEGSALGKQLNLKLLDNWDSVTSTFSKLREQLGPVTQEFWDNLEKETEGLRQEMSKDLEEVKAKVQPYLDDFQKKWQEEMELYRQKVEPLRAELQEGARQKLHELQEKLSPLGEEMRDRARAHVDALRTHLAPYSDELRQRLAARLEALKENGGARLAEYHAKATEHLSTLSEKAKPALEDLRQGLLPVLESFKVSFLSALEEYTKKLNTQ

Turning to `CCCCCCCCCCCCCC(=O)OC[C@H](COP(=O)([O-])OCC[N+](C)(C)C)OC(=O)CCCCCCCCCCCCC` [DMPC], the results for the T1/2 on apoA-I and at apoA4 were 11 ± 1 min and 62 ± 10 min, respectively.
